# Data reported in the RepoRT retention time repository.
# Test: Waters ACQUITY UPLC BEH C18, 100 × 2.1 mm, 1.7 µm, 40 °C, 0.3 to 0.4 mL/min, estimated dead time 0.63 min; A: water + 0.1% formic acid; B: methanol + 0.1% formic acid; gradient (min/%B) 0/0.5 0.1/0.5 10/80 10.1/99.5 12/99.5
# Details: stereoisomer not certain
row,Compound,LC retention time [min]
1,Oc1cc(O)c2ccc(-c3ccc(O)c(O)c3)[o+]c2c1,3.59
2,CC(C)=CCCC(C)(OC1OC(COC2OCC(O)C(O)C2O)C(O)C(O)C1O)C1CCC2(C)C1C(O)CC1C3(C)CCC(OC4OC(CO)C(O)C(O)C4OC4OC(CO)C(O)C(O)C4O)C(C)(C)C3CCC12C (configuration not stated),6.14
3,CC(O)(CC(=O)O)CC(=O)O,1.98
4,O=C(C=Cc1ccc(O)c(O)c1)OC(Cc1ccc(O)c(O)c1)C(=O)O (configuration not stated),4.6
5,O=C(O)C(Cc1ccc(O)cc1)NCC1(O)OC(CO)C(O)C1O (configuration not stated),1.82
6,CC=C1CN2C3CC1C(CO)C2Cc1c3[nH]c2ccccc12 (configuration not stated),3.58
7,CC1CCC2(OC1O)OC1CC3C4CC=C5CC(OC6OC(CO)C(OC7OC(C)C(O)C(O)C7O)C(O)C6OC6OC(C)C(O)C(O)C6O)CCC5(C)C4CCC3(C)C1C2C (configuration not stated),5.71
8,COc1ccc(-c2cc(=O)c3c(O)cc(OC4OC(C(=O)O)C(O)C(O)C4O)cc3o2)cc1O (configuration not stated),4.6
9,CC(C)CC1NC(=O)C2CCCN2C1=O (configuration not stated),4.03
10,COc1cc(-c2cc(=O)c3c(O)c(C4OC(CO)C(O)C(O)C4OC4OC(CO)C(O)C(O)C4O)c(O)cc3o2)ccc1O (configuration not stated),3.87
11,OCC1OC(Oc2cc3c(O)cc(O)cc3[o+]c2-c2ccc(O)c(O)c2)C(O)C(O)C1O (configuration not stated),2.91
12,C1CCN2CC3CC(CN4CCCCC34)C2C1 (configuration not stated),2.33
13,NCCc1ccc(O)cc1,1.83
14,CC(C)C(O)(C(=O)OCC1CCN2CCCC12)C(C)O (configuration not stated),3.05
15,NCCc1c[nH]c2ccccc12,1.79
16,CCC=CCC=CCC=CCCCCCCCC(=O)OCC(O)COP(=O)([O-])OCC[N+](C)(C)C (configuration not stated),8.93
17,C=CC1C(OC2OC(CO)C(O)C(O)C2O)OC=C2C(=O)N3CCc4c([nH]c5ccccc45)C3CC21 (configuration not stated),5.56
18,CCCCCCCCCCCCCCCC(=O)OCC(O)COP(=O)(O)OCCNC1OC(CO)C(O)C(O)C1O (configuration not stated),9.72
19,CCC(C)C(NC(=O)C(N)C(C)C)C(=O)O (configuration not stated),2.88
20,CC=C1CN(C)C2Cc3c([nH]c4ccccc34)C(c3cc4[nH]c5c(c4cc3OC)CCN3CC4CC(CC)C3C5(C(=O)OC)C4)CC1C2C(=O)OC (configuration not stated),4.94
21,C=CC1C2=CCOC(=O)C2=COC1OC1OC(CO)C(O)C(O)C1O (configuration not stated),3.44
22,c1ccc2c(c1)[nH]c1cnccc12,3.48
23,COc1ccc(C2CC(=O)c3c(O)cc(OC4OC(COC5OC(C)C(O)C(O)C5O)C(O)C(O)C4O)cc3O2)cc1 (configuration not stated),5.33
24,c1ccc2c(c1)CN1CCCC1=N2,2.8
25,CC(C)C(O)(C(=O)OCC1CC[N+]2([O-])CCCC12)C(C)O (configuration not stated),3.11
26,COc1cc2c3c(c1OC)-c1cc4c(cc1CC3N(C)CC2)OCO4 (configuration not stated),4.89
27,OCCc1c[nH]c2ccccc12,3.06
28,COc1ccc2cc1Oc1ccc(cc1)CC1c3cc(c(OC)cc3CCN1C)Oc1c(OC)c(OC)cc3c1C(C2)N(C)CC3 (configuration not stated),4.19
29,CCCC1CCCCN1 (configuration not stated),2.78

# More lines, now with the values ahead:
row,LC retention time [min],Compound
1,5.21,CC1CCC2(C(=O)OC3OC(COC4OC(CO)C(OC5OC(C)C(O)C(O)C5O)C(O)C4O)C(O)C(O)C3O)CCC3(C)C(=CCC4C5(C)CC(O)C(O)C(C)(CO)C5CCC43C)C2C1C (configuration not stated)
2,3.88,O=C(O)CC(=O)OCC1OC(Oc2c(-c3cc(O)c(O)cc3O)oc3cc(O)cc(O)c3c2=O)C(O)C(O)C1O (configuration not stated)
3,1.74,CS(=O)CCCCC(=NOS(=O)(=O)O)SC1OC(CO)C(O)C(O)C1O (configuration not stated)
4,4.1,COc1ccc2c(c1)OC(OC1OC(CO)C(O)C(O)C1O)C(=O)N2OC (configuration not stated)
5,2,O=S(=O)(O)ON=C(Cc1ccc(O)cc1)SC1OC(CO)C(O)C(O)C1O (configuration not stated)
6,3.74,COc1cc(C=CC(=O)OC2C(O)CC(O)(C(=O)O)CC2O)ccc1O (configuration not stated)
7,3.87,COc1cc(C=CC(=O)OCC2OC(OC3C(c4c(O)cc5oc(-c6ccc(O)c(O)c6)cc(=O)c5c4O)OC(CO)C(O)C3O)C(O)C(O)C2O)ccc1O (configuration not stated)
8,6.06,CC1(C)CCC2(C(=O)OC3OC(CO)C(O)C(O)C3O)C(O)CC3(C)C(=CCC4C5(C)CCC(OC6OCC(O)C(OC7OC(CO)C(O)C(O)C7O)C6O)C(C)(C)C5CCC43C)C2C1 (configuration not stated)
9,7.79,CC1=C(O)C(=O)CC(OC2CC(C)(C)CC3C4=CCC5C6(C)CCC(OC7OC(C(=O)O)C(O)C(O)C7OC7OCC(O)C(O)C7OC7OC(C)C(O)C(O)C7O)C(C)(CO)C6CCC5(C)C4(C)CCC23C)O1 (configuration not stated)
10,2.98,CC(C)C(NC(=O)C(N)Cc1ccccc1)C(=O)O (configuration not stated)
11,9.02,CCCCCC(=O)OC1C(OC2(CO)OC(CO)C(OC(C)=O)C2O)OC(CO)C(OC(=O)CCCC)C1OC(=O)CCCC (configuration not stated)
12,7.33,CC1(C)CCC2(C(=O)O)C(O)CC3(C)C(=CCC4C5(C)CCC(OC6OC(CO)C(O)C(O)C6O)C(C)(C)C5CCC43C)C2C1 (configuration not stated)
13,3.7,CC1CCC2C(C)C3C(CC4C5CC=C6CC(O)CCC6(C)C5CC(O)C43CO)N2C1 (configuration not stated)
14,4.73,O=C(CCc1ccc(O)cc1)c1c(O)cc(O)cc1OC1OC(CO)C(O)C(O)C1O (configuration not stated)
15,5.94,CC(C)=CCCC(C)(O)C1CCC2(C)C1C(O)CC1C3(C)CCC(O)C(C)(C)C3C(OC3OC(CO)C(O)C(O)C3OC3OC(CO)C(O)C(O)C3O)CC12C (configuration not stated)
16,5.15,CCOC1OC2c3cc4c(cc3CCN(C)C2c2ccc3c(c21)OCO3)OCO4 (configuration not stated)
17,5.42,O=C(O)C=Cc1ccccc1

row,LC retention time [min],Compound
1,5.59,COc1cccc2c(=O)c3ccoc3n(C)c12
2,1.79,CC=CS(=O)CC(NC(=O)CCC(N)C(=O)O)C(=O)O (configuration not stated)
3,7.85,CC1OC(OC2C(OC3C(OC4CCC5(C)C(CCC6(C)C5CC=C5C7CC(C)(C)CC(=O)C7(C)CCC56C)C4(C)CO)OC(C(=O)O)C(O)C3O)OCC(O)C2O)C(O)C(O)C1O (configuration not stated)
4,6.41,CC=CSSC=CC
5,4.35,COC(=O)C1C(O)CCC2CN3CCc4c([nH]c5ccccc45)C3CC21 (configuration not stated)
6,5.86,CC1OC(OC2C(OC3C(OC4CCC5(C)C(CCC6(C)C5CC=C5C7CC(C)(C)CC(OC8OC(C)C(O)C(O)C8O)C7(C)CCC56C)C4(C)CO)OC(C(=O)O)C(O)C3O)OCC(O)C2O)C(O)C(O)C1O (configuration not stated)
7,4,O=C1C(=Cc2ccc(O)c(O)c2)Oc2c1ccc(OC1OC(CO)C(O)C(O)C1O)c2O (configuration not stated)
8,1.67,NC(CCC(=O)NCC(=O)O)C(=O)O (configuration not stated)
9,3.63,COc1c(O)cc2oc(-c3ccc(O)c(O)c3)c(OC3OC(COC4OC(CO)C(O)C(O)C4O)C(O)C(O)C3O)c(=O)c2c1O (configuration not stated)
10,2.33,O=C(O)C(Cc1ccccc1)NCC1(O)OC(CO)C(O)C1O (configuration not stated)
11,1.52,NC(CCC(=O)NC(CS)C(=O)NCC(=O)O)C(=O)O (configuration not stated)
12,2.46,CC(=O)N1CCCC1C(=O)O (configuration not stated)
13,5,COc1cc2ccc(=O)oc2cc1OC
14,1.74,OCC1OC(OCC2OC(O)(CO)C(O)C2O)C(O)C(O)C1O (configuration not stated)
15,7.63,COc1ccc(-c2coc3cc(O)cc(O)c3c2=O)cc1
16,3.96,COc1cc(-c2cc(=O)c3c(O)cc(OC4OC(C(=O)O)C(O)C(O)C4OC4OC(C(=O)O)C(O)C(O)C4O)cc3o2)cc(OC)c1O (configuration not stated)
